Test results reported in patent publication US20230310452A1, “BROMODOMAIN AND EXTRA TERMINAL DOMAIN (BET) INHIBITOR COMPOSITIONS AND METHODS THEREOF FOR USE AS ANTI-AGING AGENTS” (MDI Biological Laboratory, priority 2020, published 2023).
Entries after “also recorded” stand apart in the source; their conditions may differ.

What was measured:
[1] = test system: CGI- gene expression; assay: CGI- gene expression upon treatment with BET inhibitors other than JQ1 in cell lines/tissues (FIG. 14); type: cell-based; settings: indicated cell lines/tissues, concentrations, durations, vs untreated controls
Text: Moreover, the cell line or tissue used in the BET inhibitor treatment, as well as treatment duration and concentration were also provided.

[2] = cited from earlier work
[3] = test system: CGI- genes / CGI+ genes; assay: Gene expression changes upon JQ1 treatment versus untreated controls (FIGS. 12A-12C); type: cell-based
Text: (§1) FIG. 12 illustrates JQ1 treatment suppresses CGI- gene misexpression. FIGS. 12A-12B show gene expression changes upon JQ1 treatment. […] All data are from the comparison of JQ1 treated with untreated controls for CGI+ genes (upper) and CGI- genes (lower) for each cell type. TAC: transverse aortic constriction. […] Representative data from three blind tests with similar results are shown. The control (Con) curve is to the left of the JQ1 treatment curve from 12-19 days post treatment.
BET family proteins (e.g., BRD2/4) are also components of local enhancer mediated transcriptional activation (FIG. 11A).
(§2) The effects of JQ1 on C. elegans lifespan was also tested. […] Treatment with BET inhibitors can suppress misexpression of CGI- genes during aging, and that this, in turn, will delay age-associated degenerative changes in mice.

[4] = test system: C. elegans; assay: C. elegans lifespan after one-time JQ1 treatment (FIG. 12D); type: in vivo; settings: representative of three blind tests
Text: as §1, §2

[5] = test system: CGI- gene expression; assay: JQ1 in vivo treatment of mice, published RNA-seq data, CGI- gene expression (FIG. 13); settings: intraperitoneal injections of 50 mg/kg/day, vs untreated controls
Description: FIG. 13 illustrates JQ1 in vivo treatment data based on published RNA-seq data generated from mice by intraperitoneal injections of 50 mg/kg/day as indicated. All data are from the comparison with untreated controls for CGI+ genes (upper) and CGI- genes (lower) for each of *p < 0.05; **p < 0.01, ***p< 0.001. Sham operation; transverse aortic constriction (TAC); myocardial infarction (MI).
All of the data were based on published RNA-seq data and compared to untreated controls for CGI+ and CGI- genes.

[6] = test system: BET; settings: cited from earlier work

Compound | CGI- gene expression upon BET inhibitors other than JQ1 [1] | other results
COc1cc2c(cc1-c1c(C)noc1C)ncc1[nH]c(=O)n([C@H](C)c3ccccn3)c12 [I-BET 151, (R)-7-(3,5-dimethylisoxazol-4-yl)-8-methoxy-1-(1-(pyridin-2-yl)ethyl)-1,3-dihydro-2H-imidazo[4,5-c]quinolin-2-one] | suppress Cytosine-phosphate-Guanine (CpG) island negative genes | 
Cc1sc2c(c1C)C(c1ccc(Cl)cc1)=N[C@@H](CC(N)=O)c1nnc(C)n1-2 [CPI-203, (S)-2-(4-(4-chlorophenyl)-2,3,9-trimethyl-6H-thieno[3,2-f][1,2,4]triazolo [4,3-a][1,4]diazepin-6-yl)acetamide] | suppress Cytosine-phosphate-Guanine (CpG) island negative genes | 
CCNC(=O)c1cc2c(-c3cc(C(C)(C)O)ccc3Oc3c(C)cc(F)cc3C)cn(C)c(=O)c2[nH]1 [ABBV-744, N-ethyl-4-(2-(4-fluoro-2,6-dimethylphenoxy)-5-(2-hydroxypropan-2-yl)phenyl)-6-methyl-7-oxo-6,7-dihydro-1H-pyrrolo[2,3-c]pyridine-2-carboxamide] | suppress Cytosine-phosphate-Guanine (CpG) island negative genes | 
COc1nnc2ccc(N3CCC(c4ccc(OCCN5CCN(C)C(=O)[C@H]5C)cc4)CC3)nn12 [AZD 5153, (R)-4-(2-(4-(1-(3-methoxy-[1,2,4]triazolo[4,3-b]pyridazin-6-yl)piperidin-4-yl)phenoxy)ethyl)-1,3-dimethylpiperazin-2-one] | suppress Cytosine-phosphate-Guanine (CpG) island negative genes | 
Cc1sc2c(c1C)C(c1ccc(Cl)cc1)=N[C@@H](CC(=O)Nc1ccc(OCCOCCOCCOCCNc3cccc4c3C(=O)N(C3CCC(=O)NC3=O)C4=O)cc1)c1nnc(C)n1-2 (stereo partly drawn) [ARV-825, 2-((S)-4-(4-chlorophenyl)-2,3,9-trimethyl-6H-thieno[3,2-f][1,2,4]triazolo [4,3-a][1,4]diazepin-6-yl)-N-(4-(2-(2-(2-(2-((2-(2,6-dioxopiperidin-3-yl)-1,3-dioxoisoindolin-4-yl)amino)ethoxy)ethoxy)ethoxy)ethoxy)phenyl)acetamide] | suppress Cytosine-phosphate-Guanine (CpG) island negative genes | 
COC(=O)C[C@@H]1N=C(c2ccc(Cl)cc2)c2c(sc(C)c2C)-n2c(C)nnc21 [MS417, methyl (S)-2-(4-(4-chlorophenyl)-2,3,9-trimethyl-6H-thieno[3,2-f][1,2,4]triazolo[4,3-a][1,4]diazepin-6-yl)acetate] | suppress Cytosine-phosphate-Guanine (CpG) island negative genes | 
Cc1sc2c(c1C)C(c1ccc(Cl)cc1)=N[C@@H](CC(=O)NCCCCCCCCCCNC(=O)C[C@@H]1N=C(c3ccc(Cl)cc3)c3c(sc(C)c3C)-n3c(C)nnc31)c1nnc(C)n1-2 [MS645, (S)-N,N′-(decane-1,10-diyl)bis(2-((6S)-4-(4-chlorophenyl)-2,3,9-trimethyl-6H-thieno[3,2-f] [1,2,4]triazolo[4,3-a][1,4]diazepin-6-yl)acetamide)] | suppress Cytosine-phosphate-Guanine (CpG) island negative genes | 
COc1cc(-c2cn(C)c(=O)c3cnccc23)cc(OC)c1CN(C)CC(=O)NCCOCCOCCNc1cccc2c1C(=O)N(C1CCC(=O)NC1=O)C2=O.Cl.Cl (centres unmarked) [dBRD9, 2-[[[4-(1,2-Dihydro-2-methyl-1-oxo-2,7-naphthyridin-4-yl)-2-6-dimethoxyphenyl]methyl]methylamino]-N-[2-[2-[2-[[2-(2,6-dioxo-3-piperidinyl)-2,3-dihydro-1,3-dioxo-1H-isoindol-4-yl]amino]ethoxy]ethoxy]ethyl] acetamide dihydrochloride] | suppress Cytosine-phosphate-Guanine (CpG) island negative genes | 
Cc1noc(C)c1-c1cnc2c(-c3ccc(C(=O)O)cc3)cn([C@@H](C)c3ccccn3)c2c1 [PLX51107, (S)-4-(6-(3,5-dimethylisoxazol-4-yl)-1-(1-(pyridin-2-yl)ethyl)-1H-pyrrolo[3,2-b]pyridin-3-yl)benzoic acid] | suppress Cytosine-phosphate-Guanine (CpG) island negative genes | 
Cc1sc2c(c1C)C(c1ccc(Cl)cc1)=N[C@@H](CC(=O)OC(C)(C)C)c1nnc(C)n1-2 [JQ1, tert-butyl (S)-2-(4-(4-chlorophenyl)-2,3,9-trimethyl-6H-thieno[3,2-f][1,2,4]triazolo[4,3-a][1,4]diazepin-6-yl)acetate] |  | safety for humans [2]: safe for humans; overlap of CGI- genes downregulated by JQ1 with CGI- genes upregulated during aging or upon nuclear architecture disruption ([3]; FIG. 12C): largely overlapped; CGI- gene expression upon JQ1 treatment ([3]; JQ1 treated vs untreated controls, each cell type, FIGS. 12A-12B): global downregulation of CGI- gene expression; also recorded: suppresses CGI- gene expression; CGI+ gene expression upon JQ1 treatment ([3]; JQ1 treated vs untreated controls, FIGS. 12A-12B): not significantly affected; median lifespan of adult C. elegans [4]: significantly extended the median lifespan; also recorded: lifespan extension; CGI- gene expression in mice [5]: suppression of CGI- gene expression
Oc1ccc(C=Cc2cc(O)cc(O)c2)cc1 [resveratrol] |  | pan-BET inhibitor activity [6]: pan-BET inhibitor activity
CCS(=O)(=O)Nc1ccc(Oc2ccc(F)cc2F)c(-c2cn(C)c(=O)c3[nH]ccc23)c1 [ABBV-075, N-(4-(2,4-difluorophenoxy)-3-(6-methyl-7-oxo-6,7-dihydro-1H-pyrrolo[2,3-c]pyridin-4-yl)phenyl)ethanesulfonamide] | suppress Cytosine-phosphate-Guanine (CpG) island negative genes | 
